Measured values from BindingDB's records for patent US20250346585 (Alexion Pharmaceuticals, 2025).

Target: T1, Complement C1s subcomponent (Homo sapiens, UniProt P09871)
T1 sequence (P09871 whole entry): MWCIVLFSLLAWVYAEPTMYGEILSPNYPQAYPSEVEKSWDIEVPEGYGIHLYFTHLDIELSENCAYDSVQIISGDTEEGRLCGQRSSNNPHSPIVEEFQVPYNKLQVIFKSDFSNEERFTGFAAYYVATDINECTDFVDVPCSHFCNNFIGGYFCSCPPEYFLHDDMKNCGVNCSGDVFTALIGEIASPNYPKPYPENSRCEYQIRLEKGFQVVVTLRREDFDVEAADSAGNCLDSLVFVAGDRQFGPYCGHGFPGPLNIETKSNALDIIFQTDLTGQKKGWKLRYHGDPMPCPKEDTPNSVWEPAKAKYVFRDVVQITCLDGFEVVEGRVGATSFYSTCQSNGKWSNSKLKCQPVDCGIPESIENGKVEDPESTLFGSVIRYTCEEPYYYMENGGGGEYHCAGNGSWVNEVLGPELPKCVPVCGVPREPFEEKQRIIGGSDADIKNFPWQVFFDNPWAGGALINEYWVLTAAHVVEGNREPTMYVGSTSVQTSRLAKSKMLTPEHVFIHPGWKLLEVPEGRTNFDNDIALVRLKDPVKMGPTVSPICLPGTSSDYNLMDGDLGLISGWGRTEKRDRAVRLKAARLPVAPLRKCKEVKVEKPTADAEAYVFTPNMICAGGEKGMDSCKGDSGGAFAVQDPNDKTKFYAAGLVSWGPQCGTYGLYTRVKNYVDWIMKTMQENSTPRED
Test: Human C1s Enzyme Assay
Procedure: Human complement C1s enzyme (purified from human serum, Complement Technology, Inc.) at 1.16 nM final concentration was incubated with test compound at various concentrations for 5 min at room temperature in 50 mM Tris, 1 M NaCl, pH 7.5. A synthetic substrate Z-L-Lys-SBzl and DTNB (Ellman's reagent) were added to final concentrations of 100 μM each. Absorbance at 405 nm (A405) was recorded at 30 second intervals for 30 min using a microplate spectrophotometer. IC50 values were calculated by nonlinear regression of complement C1s reaction rates as a function of test compound concentration.

Row | IC50 [nM] | SMILES
1 | < 100 | CC(=O)NCCNC[C@@]12C[C@@H]1N(C(=O)CNC(=O)c1ccc3c(c1)-c1ccccc1C3(F)F)[C@H](C(=O)N[C@H](C)c1cc(C(=N)N)cs1)C2 [US20250346585, Compound 315]
2 | < 100 | C[C@@H](NC(=O)[C@@H]1C[C@@H](S(C)(=O)=O)CN1C(=O)CNC(=O)c1ccc2sc3ccccc3c2c1)c1cc(C(=N)N)cs1 [US20250346585, Compound 332]
3 | > 1000 | O=C(NCC(=O)N1CC2(C[C@H]1C(=O)NCc1cc(N3CCCC3=O)cs1)OCCO2)c1ccc(Oc2ccc(F)cc2)cc1 [US20250346585, Compound 290]
4 | < 100 | N=C(N)c1cc(CNC(=O)[C@@H]2CC3(CN2C(=O)CNC(=O)c2ccc(-c4ccccc4)cn2)OCCO3)cs1 [US20250346585, Compound 144]

Row | SMILES | IC50 [nM]
5 | C[C@@H](NC(=O)[C@@H]1C[C@]2(CC(F)(F)F)C[C@@H]2N1C(=O)CNC(=O)c1ccc2c(c1)-c1ccccc1C2(F)F)c1cc(C(=N)N)cs1 [US20250346585, Compound 411] | > 1000
6 | C[C@@H](NC(=O)[C@H]1C[C@]2(CC(F)(F)F)C[C@@H]2N1C(=O)CNC(=O)c1ccc2c(c1)-c1ccccc1C2(F)F)c1cc(C(=N)N)cs1 [US20250346585, Compound 410] | > 1000
